Assay results taken from patent publication US20080161309A1, “Novel Compounds” (priority 2004, published 2008).
Counter-ions that a name gives are not always drawn.

How the values were obtained:
[1] = molecular target: T1, human serotonin transporter (hSERT) (Homo sapiens, UniProt P31645); test: hSERT receptor binding, [125I]-RTI-55, HEK-293 membranes; conditions: [125I]-RTI-55, HEK-293 membranes, Cheng-Prusoff; read-out: SERT Ki
T1 construct: expressed in transfected cells; host or cells: HEK-293, membranes
Description: Cell pastes of HEK-293 cells transfected with a human serotonin transporter cDNA were prepared. […] Aliquots of membranes (−2.5 mg/ml protein) were stored in liquid nitrogen until used.
The reaction was incubated and gently agitated for 90 minutes at room temperature, and terminated by removal of assay volume. […] Test compounds were run in duplicate, and specific binding was defined as the difference between binding in the presence and absence of 10 μM citalopram. Excel and GraphPad Prism software were used for data calculation and analysis. IC50 values were converted to Ki values using the Cheng-Prusoff equation.

[2] = molecular target: T2, human norepinephrine transporter (hNET) (Homo sapiens, UniProt P23975); test: hNET receptor binding, [125I]-RTI-55, HEK-293 membranes; conditions: Cheng-Prusoff, read-out: NET Ki
T2 construct: expressed in transfected cells; host or cells: HEK-293, membranes
Description: Cell pastes of HEK-293 cells transfected with a human norepinephrine transporter cDNA were prepared. The cell pastes were resuspended in 400 to 700 ml of Krebs-HEPES assay buffer (25 mM HEPES, 122 mM NaCl, 3 mM KCl, 1.2 mM MgSO4, 1.3 mM CaCl2, and 11 mM glucose, pH 7.4) with a Polytron homogenizer at setting 7 for 30 seconds. Aliquots of membranes (5 mg/ml protein) were stored in liquid nitrogen until used.
The binding assay was set up in Beckman deep-well polypropylene plates with a total volume of 250 μl containing: drug (10^−5M to 10^−12M), cell membranes, and […] [^125I]-RTI-55 (Perkin Elmer, NEX-272; specific activity 2200 Ci/mmol). The reaction was incubated by gentle agitation for 90 minutes at room temperature and was terminated by filtration through Whatman GF/C filter plates using a Brandel 96-well plate harvester. Scintillation fluid (100 μl) was added to each well, and bound [^125I]-RTI-55 was determined using a Wallac Trilux Beta Plate Counter. Test compounds were run in duplicate, and specific binding was defined as the difference between binding in the presence and absence of 10 μM desipramine.
Excel and GraphPad Prism software were used for data calculation and analysis. IC50 values were converted to Ki values using the Cheng-Prusoff equation. The Ki values (nM) for the hNET are reported below in Table 1.

T2 sequence (P23975 whole entry): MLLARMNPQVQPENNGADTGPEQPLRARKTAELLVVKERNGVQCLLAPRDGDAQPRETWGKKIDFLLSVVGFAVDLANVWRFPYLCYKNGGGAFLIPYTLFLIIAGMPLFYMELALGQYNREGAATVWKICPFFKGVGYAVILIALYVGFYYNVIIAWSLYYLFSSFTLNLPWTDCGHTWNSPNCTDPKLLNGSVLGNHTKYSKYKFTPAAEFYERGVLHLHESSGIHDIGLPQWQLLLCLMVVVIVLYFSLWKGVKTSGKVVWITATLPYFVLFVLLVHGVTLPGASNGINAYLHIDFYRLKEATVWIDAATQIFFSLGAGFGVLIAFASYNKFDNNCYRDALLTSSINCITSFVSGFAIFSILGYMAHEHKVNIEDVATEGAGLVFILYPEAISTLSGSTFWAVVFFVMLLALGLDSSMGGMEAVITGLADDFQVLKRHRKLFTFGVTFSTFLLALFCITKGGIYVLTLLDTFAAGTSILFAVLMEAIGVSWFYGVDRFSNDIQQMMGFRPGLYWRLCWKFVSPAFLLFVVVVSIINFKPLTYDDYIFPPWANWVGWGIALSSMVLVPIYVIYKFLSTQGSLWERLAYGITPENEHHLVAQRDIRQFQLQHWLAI
T1 sequence (P31645 whole entry): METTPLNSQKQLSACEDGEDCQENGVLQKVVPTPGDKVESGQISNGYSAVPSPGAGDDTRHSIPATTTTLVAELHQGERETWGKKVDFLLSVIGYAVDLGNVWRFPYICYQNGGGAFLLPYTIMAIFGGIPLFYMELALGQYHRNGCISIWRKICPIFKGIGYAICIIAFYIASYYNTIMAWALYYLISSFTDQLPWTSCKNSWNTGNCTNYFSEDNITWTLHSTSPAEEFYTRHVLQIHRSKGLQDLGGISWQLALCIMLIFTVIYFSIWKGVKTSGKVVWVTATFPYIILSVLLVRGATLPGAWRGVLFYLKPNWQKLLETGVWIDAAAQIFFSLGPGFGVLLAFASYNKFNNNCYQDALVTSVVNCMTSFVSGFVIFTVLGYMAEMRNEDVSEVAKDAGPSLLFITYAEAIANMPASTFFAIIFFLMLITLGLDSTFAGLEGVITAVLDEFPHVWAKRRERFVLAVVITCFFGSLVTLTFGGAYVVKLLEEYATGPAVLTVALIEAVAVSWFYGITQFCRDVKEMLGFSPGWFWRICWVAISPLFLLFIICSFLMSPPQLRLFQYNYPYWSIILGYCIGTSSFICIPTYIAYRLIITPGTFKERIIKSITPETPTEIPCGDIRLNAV

Row | Ki [1] | Ki [2] | Structure (SMILES)
1 | 0.142 µM | 0.00377 µM | Fc1cccc([C@H](Oc2cccc(F)c2F)[C@@H]2CNCCO2)c1 [Example 39, (2S)-2-[(1S)-(2,3-Difluorophenoxy)(3-fluorophenyl)methyl] morpholine hydrochloride]
2 | 0.158 µM | 0.0043 µM | COc1cc(C)ccc1O[C@@H](c1ccccc1)[C@@H]1CNCCO1 [Example 40, (2S)-2-[(1S)-(2-Methoxy-4-methylphenoxy)phenylmethyl] morpholine hydrochloride]
3 | 0.0692 µM | 0.0114 µM | COc1cc(C)ccc1O[C@@H](c1ccc(F)cc1)[C@@H]1CNCCO1 [Example 42, (2S)-2-[(1S)-(2-methoxy-4-methylphenoxy)4-fluorophenyl) methyl] morpholine hydrochloride]
4 | 0.0047 µM | 1.7 µM | COc1cc(C)ccc1O[C@H](c1ccc(F)cc1)[C@H]1CNCCO1 [Example 43, (2R)-2-[(1R)-(2-Methoxy-4-methylphenoxy)4-Fluorophenyl) methyl] morpholine hydrochloride]
5 | 0.0748 µM | 0.0333 µM | Fc1cccc([C@H](Oc2ccc(Cl)cc2F)[C@@H]2CNCCO2)c1 [Example 44, (2S)-2-[(1S)-(4-Chloro-2-fluorophenoxy)(3-fluorophenyl)methyl] morpholine hydrochloride]
6 | 0.967 µM | 0.0069 µM | Fc1cccc([C@H](Oc2c(F)cccc2F)[C@@H]2CNCCO2)c1 [Example 47, (2S)-2-[(1S)-(2,6-Difluorophenoxy)-(3-fluorophenyl)methyl] morpholine hydrochloride]
7 | 0.194 µM | 0.0068 µM | Cc1ccccc1O[C@@H](c1cccc(F)c1)[C@@H]1CNCCO1 [Example 49, (2S)-2-[(1S)-(3-Fluorophenyl)-o-tolyloxy-methyl] morpholine hydrochloride]
8 | 1.07 µM | 0.008 µM | COc1cccc(F)c1O[C@@H](c1cccc(F)c1)[C@@H]1CNCCO1 [Example 50, (2S)-2-[(1S)-(2-Fluoro-6-methoxyphenoxy)(3-fluorophenyl)methyl] morpholine hydrochloride]
9 | 1.04 µM | 0.0266 µM | COc1ccc(C)cc1O[C@@H](c1cccc(F)c1)[C@@H]1CNCCO1 [Example 51, (2S)-2-[(1S)-(3-Fluorophenyl)-(2-methoxy-5-methylphenoxy)methyl] morpholine hydrochloride]
10 | 0.344 µM | 0.0266 µM | Fc1ccc(Cl)c(O[C@@H](c2cccc(Cl)c2)[C@@H]2CNCCO2)c1 [Example 53, (2S)-2-[(1S)-(2-Chloro-5-fluorophenoxy) (3-chlorophenyl)methyl] morpholine hydrochloride]
11 | 0.0417 µM | 0.0237 µM | COc1cc(Cl)ccc1O[C@@H](c1cccc(C)c1)[C@@H]1CNCCO1 [Example 54, (2S)-2-[(1S)-(4-Chloro-2-methoxyphenoxy)-m-tolyl-methyl] morpholine hydrochloride]
12 | 0.109 µM | 0.0204 µM | COc1cc(C)ccc1O[C@@H](c1cccc(C)c1)[C@@H]1CNCCO1 [Example 55, (2S)-2-[(1S)-(2-Methoxy-4-methylphenoxy)-m-tolyl-methyl] morpholine hydrochloride]
13 | 0.544 µM | 0.0197 µM | COc1cc(F)ccc1O[C@@H](c1cccc(C)c1)[C@@H]1CNCCO1 [Example 57, (2S)-2-[(1S)-(4-Fluoro-2-methoxyphenoxy)-m-tolyl-methyl] morpholine hydrochloride]
14 | 0.474 µM | 0.0429 µM | COc1ccc(O[C@@H](c2cccc(C)c2)[C@@H]2CNCCO2)c(OC)c1 [Example 58, (2S)-2-[(1S)-(2,4-Dimethoxyphenoxy)-m-tolyl-methyl] morpholine hydrochloride]
15 | 0.524 µM | 0.0103 µM | Cc1cccc([C@H](Oc2cc(F)ccc2Cl)[C@@H]2CNCCO2)c1 [Example 59, (2S)-2-[(1S)-(2-Chloro-5-fluorophenoxy)-m-tolyl-methyl] morpholine hydrochloride]
16 | 0.314 µM | 0.00191 µM | Fc1cccc([C@H](Oc2c(F)cccc2Cl)[C@@H]2CNCCO2)c1 [Example 60, (2S)-2-[(1S)-(2-Chloro-6-fluorophenoxy) (3-fluorophenyl)methyl] morpholine hydrochloride]
17 | 0.038 µM | 0.0201 µM | COc1cccc([C@H](Oc2ccc(Cl)cc2OC)[C@@H]2CNCCO2)c1 [Example 61, (2S)-2-[(1S)-(4-Chloro-2-methoxyphenoxy) (3-methoxyphenyl)methyl] morpholine hydrochloride]

Row | Ki [1] | Ki [2] | Structure (SMILES)
18 | 0.124 µM | 0.00321 µM | COc1cccc([C@H](Oc2ccc(F)cc2Cl)[C@@H]2CNCCO2)c1 [Example 63, (2S)-2-[(1S)-(2-Chloro-4-fluorophenoxy)-(3-methoxyphenyl)methyl] morpholine hydrochloride]
19 | 0.511 µM | 0.0138 µM | Fc1cccc([C@H](Oc2ccc(F)cc2F)[C@@H]2CNCCO2)c1 [Example 64, (2S)-2-[(1S)-(2,4-Difluorophenoxy) (3-fluoro-phenyl)methyl] morpholine hydrochloride]
20 | 0.511 µM | 0.0157 µM | Fc1cccc([C@H](Oc2c(F)cc(F)cc2F)[C@@H]2CNCCO2)c1 [Example 65, (2S)-2-[(1S)-(3-Fluorophenyl) (2,4,6-trifluorophenoxy)methyl] morpholine hydrochloride]
21 | 1.03 µM | 0.0199 µM | CCCc1ccccc1O[C@@H](c1cccc(F)c1)[C@@H]1CNCCO1 [Example 66, (2S)-2-[(1S)-(3-Fluorophenyl) (2-propylphenoxy)methyl] morpholine hydrochloride]
22 | 0.0355 µM | 0.39 µM | Fc1cccc([C@H](Oc2ccc(C(F)(F)F)cc2)[C@@H]2CNCCO2)c1 [Example 67, (2S)-2-[(1S)-(3-Fluorophenyl) (4-trifluoromethyl phenoxy)methyl] morpholine hydrochloride]
23 | 0.408 µM | 0.0201 µM | COc1cccc([C@H](Oc2ccc(F)cc2OC)[C@@H]2CNCCO2)c1 [Example 68, (2S)-2-[(1S)-(4-Fluoro-2-methoxyphenoxy) (3-methoxyphenyl)methyl] morpholine hydrochloride]
24 | 0.687 µM | 0.00792 µM | COc1cccc([C@H](Oc2cc(F)ccc2Cl)[C@@H]2CNCCO2)c1 [Example 69, (2S)-2-[(1S)-(2-Chloro-5-fluorophenoxy) (3-methoxyphenyl)methyl] morpholine hydrochloride]
25 | 0.0777 µM | 0.0286 µM | COc1cc(F)ccc1O[C@@H](c1ccc(Cl)cc1)[C@@H]1CNCCO1 [Example 71, (2S)-2-[(1S)-(4-Chloro-phenyl) (4-fluoro-2-methoxyphenoxy)methyl] morpholine hydrochloride]
26 | 0.0789 µM | 0.0916 µM | Fc1ccc(O[C@@H](c2ccc(Cl)cc2)[C@@H]2CNCCO2)c(Cl)c1 [Example 72, (2S)-2-[(1S)-(2-Chloro-4-fluorophenoxy) (4-chlorophenyl)methyl] morpholine hydrochloride]
27 | 0.014 µM | 0.0757 µM | COc1cc(Cl)ccc1O[C@@H](c1ccc(Cl)cc1)[C@@H]1CNCCO1 [Example 73, (2S)-2-[(1S)-(4-Chloro-2-methoxyphenoxy) (4-chlorophenyl)methyl] morpholine hydrochloride]
28 | 0.138 µM | 0.0186 µM | Fc1ccc([C@H](Oc2ccc(F)cc2Cl)[C@@H]2CNCCO2)cc1 [Example 74, (2S)-2-[(1S)-(2-Chloro-4-fluorophenoxy) (4-fluorophenyl)methyl] morpholine hydrochloride]
29 | 0.0264 µM | 0.0071 µM | Clc1cccc(O[C@@H](c2ccccc2)[C@@H]2CNCCO2)c1Cl [Example 81, (2S)-2-[(1S)-(2,3-Dichlorophenoxy)phenylmethyl] morpholine fumarate]
30 | 0.0121 µM | 0.0119 µM | Cc1c(Cl)cccc1O[C@@H](c1ccccc1)[C@@H]1CNCCO1 [Example 82, (2S)-2-[(1S)-(3-Chloro-2-methylphenoxy)phenylmethyl] morpholine fumarate]
31 | 0.222 µM | 0.0089 µM | Fc1cc(F)c(Cl)c(O[C@@H](c2ccccc2)[C@@H]2CNCCO2)c1 [Example 83, (2S)-2-[(1S)-(2-Chloro-3,5-difluorophenoxy)phenylmethyl]morpholine fumarate]
32 | 0.437 µM | 0.0101 µM | COc1ccc(Cl)cc1O[C@@H](c1ccccc1)[C@@H]1CNCCO1 [Example 84, (2S)-2-[(1S)-(5-Chloro-2-methoxyphenoxy)phenylmethyl]morpholine fumarate]
33 | 0.385 µM | 0.0109 µM | Fc1c(F)c(F)c(O[C@@H](c2ccccc2)[C@@H]2CNCCO2)c(F)c1F [Example 85, (2S)-2-[(1S)-(Pentafluorophenyloxy) (phenyl)methyl] morpholine fumarate]
